Results as given in patent publication US6350917B1, “α-crystal of cyclopentenone” (Takara Shuzo Co., Ltd., priority 1997, dated 2002).

Experiment: Thermostability: quantitative determination of the cyclopentenone (UV absorbance near 215 nm) initially and after standing at 40° C. for six days
Format: physicochemical
Settings: for Amount of the Cyclopentenone (%) After Standing at 40° C. for six days / Amount of the Cyclopentenone (%) At Initial Stage: ratio of the cyclopentenone in the sample; for Amount of the Cyclopentenone (%) At Initial Stage: the rest being water and impurities
Method: In order to compare the thermostability of the freeze-dried cyclopentenone obtained in Referential Example 1 and that of the α-type crystals obtained in Example 1, quantitative determination was conducted for the cyclopentenone on the initial stage and after allowing to stand at 40° C. for six days by means of the following quantitative determination method.
Quantitative Determination Method: A sample (0.1 g) of the cyclopentenone is dissolved in 100 ml of water and 2 ml of the resulting solution are diluted to an extent of 50-fold. Absorbance (A) of this solution at the wave length of maximum absorption near the wave length of 215 nm is measured. Amount of the cyclopentenone (mg/ml) is calculated by the following formula.
Amount of the Cyclopentenone (mg/ml)=(A÷773.4)×50000

Row | Compound | Amount of the Cyclopentenone (%) After Standing at 40° C. for six days | Amount of the Cyclopentenone (%) At Initial Stage | Thermostability compared with the freeze-dried product (40° C. for six days, in words)
1 | O=C1C=C[C@@H](O)[C@@H]1O (relative stereo) [Freeze-Dried Product, trans-4,5-dihydroxy-2-cyclopenten-1-one, reference compound] | 28.2% | 59.4% | –
2 | O=C1C=C[C@@H](O)[C@@H]1O (relative stereo) [α-Type Crystals, trans-4,5-dihydroxy-2-cyclopenten-1-one] | 95.2% | 96.4% | significantly improved thermostability as compared with the freeze-dried product
